# Laboratory results taken from patent publication US10897903B2, “Method for controlling PPO resistant weeds” (BASF SE, priority 2016, dated 2021).
# How the values were obtained:
# [1] = test system: w.2 AMATU Amaranthus tuberculatus, tall waterhemp, PPO resistant biotype 1 that does not contain the ΔG210 mutation; assay type: in vivo; settings: summary of Example 3 table
# [2] = test system: w.3 AMATU Amaranthus tuberculatus, tall waterhemp, PPO resistant biotype 2 that does not contain the ΔG210 mutation; assay type: in vivo; settings: summary of Example 3 table
smiles,measurement,setting,value
C#CCN1C(=O)C(F)(F)Oc2cc(F)c(-n3c(=O)n(C)c(=S)n(C)c3=O)cc21 [I.a.35],activity in words on PPO resistant weed w.2,[1],very good activity
same,activity in words on PPO resistant weed w.3,[2],very good activity
